Key:
[1] = test system: BRSNW; experiment: Pre-emergence effects on crop plants (Table D5); format: in vivo, Brassica napus; settings: crop plant, visual grading after ca. 3 weeks
[2] = test system: ZEAMX; experiment: Post-emergence effects on crop plants (Table F1); format: in vivo, Zea mays; settings: application rate 320 g/ha, crop plant ZEAMX
Source text: (§1) 2 to 3 weeks after sowing, the test plants were sprayed in the single-leaf stage.

[3] = test system: TRZAS; experiment: Post-emergence effects on crop plants (Table F2); format: in vivo, Triticum aestivum; settings: application rate 320 g/ha, crop plant TRZAS
Source text: as §1

[4] = test system: ECHCG; experiment: Herbicidal pre-emergence action, section C (Table C6); format: in vivo, Echinochloa crus-galli; settings: application rate 320 g/ha; visual grading after ca. 3 weeks
[5] = test system: ECHCG; experiment: Herbicidal post-emergence action (Table B3); format: in vivo, Echinochloa crus-galli; settings: application rate 1280 g/ha, rated visually after about 3 weeks
Procedure: (§2) Seeds of mono- and dicotyledonous weed plants were placed in plastic pots in sandy loam soil (doubly sown with in each case one species of mono- or dicotyledonous weed plants per pot), covered with soil and cultivated in a greenhouse under controlled growth conditions. 2 to 3 weeks after sowing, the test plants were treated at the one-leaf stage. […] After the test plants had been kept in the greenhouse under optimum growth conditions for about 3 weeks, the activity of the preparations was rated visually in comparison to untreated controls. For example, 100% activity = the plants have died, 0% activity = like control plants.

[6] = test system: ALOMY; experiment: Herbicidal pre-emergence action (Table A9); format: in vivo, Alopecurus myosuroides; settings: application rate 1280 g/ha; visual grading after ca. 3 weeks
Source text: (§3) Seeds of mono- and dicotyledonous weed plants were sown in plastic pots (double sowings with one species of mono- and one species of dicotyledonous weed plants per pot), in sandy loam, and covered with soil.

[7] = test system: MATIN; experiment: Herbicidal pre-emergence action (Table A4); format: in vivo, Matricaria inodora; settings: application rate 1280 g/ha; visual grading after ca. 3 weeks
Source text: as §3

[8] = test system: ORYZA; experiment: Pre-emergence effects on crop plants (Table D3); settings: crop plant; application rate 80 g/ha; visual grading after ca. 3 weeks
[9] = test system: POAAN; experiment: Herbicidal pre-emergence action (Table A7); format: in vivo, Poa annua; settings: visual grading after ca. 3 weeks
Source text: as §3

[10] = test system: ECHCG; experiment: Herbicidal pre-emergence action (Table A2); format: in vivo, Echinochloa crus-galli; settings: visual grading after ca. 3 weeks
Source text: as §3

[11] = test system: ORYZA; experiment: Post-emergence effects on crop plants (Table F3); format: in vivo, Oryza sativa; settings: application rate 320 g/ha, crop plant ORYZA
Source text: as §1

[12] = test system: SETVI; experiment: Herbicidal pre-emergence action (Table A5); format: in vivo, Setaria viridis; settings: visual grading after ca. 3 weeks
Source text: as §3

[13] = test system: GLXMA; experiment: Pre-emergence effects on crop plants (Table D4); format: in vivo, Glycine max; settings: crop plant, visual grading after ca. 3 weeks
Source text: (§4) Seeds of mono- and dicotyledonous weed plants and crop plants were sown, in plastic or organic planting pots, in sandy loam and covered with soil. The compounds according to the invention, formulated in the form of wettable powders (WP) or as emulsifiable concentrates (EC), were applied to the surface of the covering soil as aqueous suspension or emulsion, with the addition of 0.5% of an additive, at an application rate of 600 1 of water/ha (converted).
(§5) Following treatment, the pots were placed in a greenhouse and kept under optimum growth conditions for the test plants.

[14] = test system: SETVI; experiment: Herbicidal pre-emergence action, section C (Table C10); format: in vivo, Setaria viridis; settings: visual grading after ca. 3 weeks
Source text: Seeds of mono- and dicotyledonous weed plants and crop plants were sown, in plastic or organic planting pots, in sandy loam and covered with soil. The compounds according to the invention, formulated in the form of wettable powders (WP) or as emulsifiable concentrates (EC), were applied to the surface of the covering soil as aqueous suspension or emulsion, with the addition of 0.5% of an additive, at an application rate of 600 1 of water/ha (converted). Following treatment, the pots were placed in a greenhouse and kept under optimum growth conditions for the test plants.

[15] = test system: ECHCG; experiment: Herbicidal post-emergence action, section E (Table E5); format: in vivo, Echinochloa crus-galli; settings: application rate 320 g/ha; assessed visually after ca. 3 weeks
Source text: as §1

[16] = test system: LOLRI; experiment: Herbicidal pre-emergence action (Table A3); format: in vivo, Lolium rigidum; settings: visual grading after ca. 3 weeks
Source text: as §3

[17] = test system: POAAN; experiment: Herbicidal post-emergence action (Table B7); format: in vivo, Poa annua; settings: application rate 1280 g/ha
Procedure: as §2

[18] = test system: BRSNW; experiment: Post-emergence effects on crop plants (Table F5); format: in vivo, Brassica napus; settings: application rate 320 g/ha, crop plant BRSNW
Source text: as §1

[19] = test system: ZEAMX; experiment: Pre-emergence effects on crop plants (Table D1); format: in vivo, Zea mays; settings: crop plant, visual grading after ca. 3 weeks
[20] = test system: ALOMY; experiment: Herbicidal pre-emergence action, section C (Table C2); format: in vivo, Alopecurus myosuroides; settings: application rate 320 g/ha; visual grading after ca. 3 weeks
[21] = test system: STEME; experiment: Herbicidal pre-emergence action (Table A6); format: in vivo, Stellaria media; settings: visual grading after ca. 3 weeks
Source text: as §3

[22] = test system: KCHSC; experiment: Herbicidal pre-emergence action (Table A10); format: in vivo, Kochia scoparia; settings: visual grading after ca. 3 weeks
Source text: as §3

[23] = test system: TRZAS; experiment: Pre-emergence effects on crop plants (Table D2); format: in vivo, Triticum aestivum; settings: crop plant, visual grading after ca. 3 weeks
Source text: as §4, §5

[24] = test system: GLXMA; experiment: Post-emergence effects on crop plants (Table F4); format: in vivo, Glycine max; settings: crop plant GLXMA
Source text: as §1

[25] = test system: DIGSA; experiment: Herbicidal pre-emergence action (Table A12); format: in vivo, Digitaria sanguinalis; settings: visual grading after ca. 3 weeks
Source text: as §3

[26] = test system: SETVI; experiment: Herbicidal post-emergence action (Table B8); format: in vivo, Setaria viridis; settings: application rate 320 g/ha
Procedure: as §2

[27] = test system: VERPE; experiment: Herbicidal pre-emergence action (Table A11); format: in vivo, Veronica persica; settings: application rate 1280 g/ha; visual grading after ca. 3 weeks
Source text: as §3

[28] = test system: DIGSA; experiment: Herbicidal pre-emergence action, section C (Table C5); format: in vivo, Digitaria sanguinalis; settings: application rate 320 g/ha; visual grading after ca. 3 weeks
[29] = test system: VIOTR; experiment: Herbicidal pre-emergence action, section C (Table C12); format: in vivo, Viola tricolor; settings: application rate 320 g/ha; visual grading after ca. 3 weeks

| pre-emergence activity against GLXMA ([13]; application rate 320 g/ha) [%] | pre-emergence activity against BRSNW ([1]; application rate 80 g/ha) [%] | SMILES | post-emergence activity against ZEAMX [2] [%] | post-emergence activity against TRZAS [3] [%] | pre-emergence activity against ECHCG [4] [%] | pre-emergence activity against ALOMY [6] [%] | pre-emergence activity against MATIN [7] [%] | pre-emergence activity against ECHCG ([10]; application rate 320 g/ha) [%] | post-emergence activity against ORYZA [11] [%] | pre-emergence activity against SETVI ([12]; application rate 320 g/ha) [%] | pre-emergence activity against SETVI ([14]; application rate 320 g/ha) [%] | pre-emergence activity against LOLRI ([16]; application rate 320 g/ha) [%] | post-emergence activity against BRSNW [18] [%] | pre-emergence activity against ALOMY [20] [%] | pre-emergence activity against POAAN ([9]; application rate 1280 g/ha) [%] | pre-emergence activity against STEME ([21]; application rate 1280 g/ha) [%] | further results |
| --- | --- | --- | --- | --- | --- | --- | --- | --- | --- | --- | --- | --- | --- | --- | --- | --- | --- |
| 0 | – | COc1ccccc1CN1CCCC2(CCCN(Cc3ccccc3F)C2=O)C1=O (racemic) [I-061] | 0 | 0 | 100 | 90 | 90 | 100 | 0 | 100 | 100 | 100 | 0 | 80 | – | – | pre-emergence activity against BRSNW ([1]; application rate 320 g/ha): 0%; post-emergence activity against ECHCG [5]: 90%; pre-emergence activity against ORYZA [8]: 0%; pre-emergence activity against POAAN ([9]; application rate 320 g/ha): 100%; post-emergence activity against ECHCG [15]: 80%; post-emergence activity against POAAN [17]: 90%; pre-emergence activity against ZEAMX ([19]; application rate 80 g/ha): 0% |
| – | 20 | O=C1N(Cc2ccsc2)CCCC12CCCN(Cc1cccc(F)c1F)C2=O (racemic) [I-072] | 0 | 0 | 100 | – | 90 | 100 | 0 | – | – | 100 | 0 | 80 | 90 | 90 | pre-emergence activity against SETVI ([12]; application rate 1280 g/ha): 90%; pre-emergence activity against KCHSC ([22]; application rate 320 g/ha): 90%; pre-emergence activity against TRZAS ([23]; application rate 80 g/ha): 10%; pre-emergence activity against GLXMA ([13]; application rate 80 g/ha): 0%; pre-emergence activity against SETVI ([14]; application rate 80 g/ha): 100%; post-emergence activity against GLXMA ([24]; application rate 320 g/ha): 0% |
| – | – | O=C1N(Cc2ccc(F)c(F)c2F)CCCC12CCCN(Cc1ccc(F)c(F)c1F)C2=O (racemic) [I-189, 2,8-bis(2,3,4-trifluorophenylmethyl)-2,8-diazaspiro[5.5]undecane-1,7-dione] | – | – | – | 100 | 90 | 100 | – | 100 | – | – | – | – | – | 90 | pre-emergence activity against DIGSA ([25]; application rate 320 g/ha): 90%; pest or weed control at 1280 g/ha ([5]; Echinochloa crus-galli, post-emergence, 504 h, read-out: post-emergence activity against ECHCG): 90%; pest or weed control at 320 g/ha ([9]; Poa annua, pre-emergence, 504 h, application rate 320 g/ha, read-out: pre-emergence activity against POAAN): 100%; pre-emergence activity against KCHSC ([22]; application rate 1280 g/ha): 100%; post-emergence activity against SETVI [26]: 90%; pest or weed control at 1280 g/ha ([16]; Lolium rigidum, pre-emergence, 504 h, application rate 1280 g/ha, read-out: pre-emergence activity against LOLRI): 100% |
| 0 | 0 | CC(c1c(F)cccc1F)N1CCCC2(CCCN(C(C)c3c(F)cccc3F)C2=O)C1=O (stereo not shown) [I-074] | 0 | 0 | – | 90 | – | – | 0 | 90 | 90 | – | 0 | 80 | 100 | – | pre-emergence activity against DIGSA ([25]; application rate 1280 g/ha): 90%; pre-emergence activity against VERPE [27]: 90%; pre-emergence activity against DIGSA [28]: 100%; pre-emergence activity against ECHCG ([10]; application rate 1280 g/ha): 90%; pre-emergence activity against STEME ([21]; application rate 320 g/ha): 90%; pre-emergence activity against VIOTR [29]: 90%; pre-emergence activity against TRZAS ([23]; application rate 320 g/ha): 20%; pre-emergence activity against LOLRI ([16]; application rate 1280 g/ha): 90%; post-emergence activity against GLXMA ([24]; application rate 80 g/ha): 0%; pre-emergence activity against ZEAMX ([19]; application rate 320 g/ha): 0% |
